9 molecules from paper PMC6272251, “Two New Phenolic Glucosides from Lagerstroemia speciosa” (Molecules, 2015) can be followed below.

For orientation: IC50 means the concentration that inhibits the measured activity by half. A lower IC50 goes with greater potency in that assay.

Assay [1] deals with nitric oxide production in lipopolysaccharide-treated RAW264.7 cells. The assay can be described thus: Inhibition of LPS-induced NO production in RAW264.7 cells (Griess reagent). In kind it is cell-based. Particulars: Mus musculus, RAW 264.7 cells, compounds 30 min then LPS 1.0 μg/mL for 24 h. How it is done: RAW264.7 cells were plated at 1 × 10^6 cells/mL and incubated for 18 h. After incubation, the cells were treated with Compounds 1–12 for 30 min and then continuously incubated with LPS (1.0 μg/mL) for 24 h. The inhibitory effects of the isolated compounds on NO production were evaluated by using the Griess reagent and an EIA kit to determine the NO levels, as described previously.

A further assay relates to RAW264.7 cells. The assay is described as follows: Cell viability test (MTT assay). It is filed as cell-based. Particulars: Mus musculus, RAW 264.7 cells, compounds 25 to 150 μM, 24 h. How it is done: RAW264.7 cells were plated at 1 × 10^6 cells/mL and incubated for 18 h followed by the addition of Compounds 1–12 to the cells (25 to 150 μM), and the cells were incubated for 24 h. The cytotoxicity was evaluated by an MTT (3-(4,5-dimethylthiazol-2-yl)-2,5-diphenyltetrazolium bromide) assay. The […] of MTT solution (10 mg/mL in phosphate buffered saline, pH 7.4) were added to the cells 3 h prior to the end of the culture period. The incubation was terminated by the addition of 15% sodium dodecyl sulfate to each well to solubilize the formazan. The absorbance was measured by a microplate reader at 570 nm (OD570-630).
Background: Formazan colour is commonly taken as a measure of viable cells.

As to `O=C(C=Cc1ccc(O)c(O)c1)OCC1OC(OCc2ccccc2)C(O)C(O)C1O` [Compound 1, 1-O-benzyl-6-O-E-caffeoyl-β-D-glucopyranoside], the IC50 is 81.8 ± 1.3 µM in assay [1] and over 100 µM with RAW264.7 cells.
In the case of `COc1cc(C(O)C(O)CO)ccc1OC1OC(COC(=O)C=Cc2ccc(O)c(O)c2)C(O)C(O)C1O` [Compound 2, 1-O-(7S,8R)-guaiacylglycerol-(6-O-E-caffeoyl)-β-D-glucopyranoside], the 50% inhibitory concentration (IC50) in assay [1] is 71.1 ± 1.9 µM; in the assay on RAW264.7 cells, 87.7 ± 3.5 µM.
As to `O=c1c(O[C@@H]2O[C@H](CO)[C@H](O)[C@H](O)[C@H]2O)c(-c2ccc(O)c(O)c2)oc2cc(O)cc(O)c12` [Compound 3, quercetin-3-O-β-D-galactopyranoside], the values for the IC50 (in assay [1]; in the assay on RAW264.7 cells) were 81.9 ± 1.9 µM and over 100 µM, respectively.
With `O=C(C=Cc1ccc(O)c(O)c1)OCC1OC(Oc2c(-c3ccc(O)c(O)c3)oc3cc(O)cc(O)c3c2=O)C(O)C(O)C1O` [Compound 4, quercetin-3-O-(6''-O-E-caffeoyl)-β-D-galactopyranoside], the IC50 in assay [1] was 83.3 ± 0.9 µM; in the assay with RAW264.7 cells, over 100 µM.
On to `O=C(C=Cc1ccc(O)c(O)c1)OCC1OC(OC(=O)C=Cc2ccc(O)c(O)c2)C(O)C(O)C1O` [Compound 5, 1,6-di-O-E-caffeoyl-β-D-glucopyranoside], for which the values for the IC50 (in assay [1]; in the assay with RAW264.7 cells) were 69.5 ± 1.4 µM and over 100 µM, respectively.
Take `COc1cc(CCCO)cc(OC)c1O[C@@H]1O[C@H](CO)[C@@H](O)[C@H](O)[C@H]1O` [Compound 7, dihydrosyringin]: the IC50 is 76.2 ± 0.6 µM in assay [1] and over 100 µM with RAW264.7 cells.
The matching figures for `O=C(C=Cc1ccc(O)c(O)c1)OC1OC(CO)C(O)C(O)C1O` [Compound 8, 1-O-E-caffeoyl-β-D-glucopyranoside]: 70.7 ± 1.2 µM and 84.8 ± 5 µM.
With `COc1c(O)cc2c(=O)oc3c(O)c(O)cc4c(=O)oc1c2c34` [Compound 10, 3-O-methylellagic acid], the results for the IC50 (in assay [1]; in the assay on RAW264.7 cells) were 78 ± 2.3 µM and over 100 µM, respectively.
Regarding `O=C(/C=C/c1ccc(O)c(O)c1)O[C@@H]1C[C@](O)(C(=O)O)C[C@@H](O)[C@H]1O` [Compound 11, chlorogenic acid], the results for the IC50 (in assay [1]; in the assay on RAW264.7 cells) were 81.2 ± 0.7 µM and over 100 µM, respectively.
